Test results from publication PMC6934184, “Selective DNA-PKcs inhibition extends the therapeutic index of localized radiotherapy and chemotherapy” (The Journal of Clinical Investigation, 2019).

Molecular target: T1, ABL1 Q252H (Homo sapiens, UniProt P00519, Q252H)
T1 construct: purchased Thermo Fisher Scientific (Life Technologies) SelectScreen
Assay: SelectScreen LanthaScreen
Type: binding
Conditions: read-out: % displacement
Summary of the method: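 SelectScreen broad panel; activity (Z'LYTE, Adapta) plus binding formats. ATP: Km app for CSF1R Z'LYTE; 10 for CAMK1 Adapta. Readout = % per kinase.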

CN(C(=O)CN1CCOCC1)c1ccc2sc3c(-c4cccc5c(=O)cc(N6CC7CCC(C6)O7)oc45)cccc3c2c1 [NU5455]
inhibition at 1 µM: 1.1%
